# According to US20090042937A1, “[…] USE IN TREATING OR […]-RELATED DISEASES” (priority 2005, published 2009):
# Values joined by “and” are separate entries in the source; they are usually repeats but may differ in a detail not shown here. Identical values can stand only once.
# Key:
# [1] = test system: Eukaryotic translation initiation factor 4 E2 (EIF4E2); test: Microarray gene expression in adipose tissue of Tempol-fed mice; format: in vivo
# Method: (§1) In a further gene expression study, Tempol was administered to experimental mice at a dose of 5 g/kg of diet from 12 months through 15 months. Mice receiving the same diet without the addition of Tempol were used as a negative control. At the age of 15 months, the adipose tissue of the experimental animals was obtained. The expression of a broad spectrum of genes in the adipose tissue was assessed using chip-based microarray technology. Specifically, in this case an Affymetrix MOE430A 2.0 array, containing 12,960 genes, was employed. Such chips are well known in the art and are widely used to assess gene expression.
# Cyclooxygenase 1 (COX-1) = test: as above; format: in vivo
# Method: as §1
# Caspase 3 [2] = test: as above; format: in vivo
# Method: as §1
# [3] = test system: Eukaryotic translation initiation factor for E binding protein 1 (EIF4EBP1); test: as above; format: in vivo
# Method: as §1
# [4] = test system: Interferon α-induced 11.5 kd protein (P27) (AA120109); test: Microarray gene expression in cardiac tissue of Tempol-fed mice; format: in vivo; details: 5 mg/g of food from 14 to 31 months
# Method: (§2) To assess the effects of Tempol on gene expression, Tempol was administered to experimental mice at a dose of 5 mg/g of food from 14 months to 31 months after birth. Mice receiving the same food without the addition of Tempol were used as a negative control. At the age of 31 months, the experimental animals were sacrificed and the hearts were surgically removed. The expression of a broad spectrum of genes in the cardiac tissue was assessed using chip-based microarray technology. Such chips are well known in the art and are widely used to assess gene expression.
# [5] = test system: Selenium-binding protein 2 (M32032); test: as above; format: in vivo; details: 5 mg/g of food from 14 to 31 months
# Method: as §2
# [6] = test system: Serum amyloid P-component precursor (SAP) (Y00426); test: as above; format: in vivo
# Method: as §2
# [7] = test system: Immunophilin (FKBP25) (AA120298); test: as above; format: in vivo; details: 5 mg/g of food from 14 to 31 months
# Method: as §2
# [8] = test system: Interferon γ-inducible protein/IRG 47GTP-binding (M63690); test: as above; format: in vivo; details: 5 mg/g of food from 14 to 31 months
# Method: as §2
# [9] = test system: XPE-DNA damage binding protein (AA104319); test: as above; format: in vivo; details: 5 mg/g of food from 14 to 31 months
# Method: as §2
# CD53 antigen (X97227) = test: as above; format: in vivo; details: 5 mg/g of food from 14 to 31 months
# Method: as §2
# [10] = test system: Serum amyloid A-1 protein precursor (M13521); test: as above; format: in vivo
# Method: as §2
# Cyclophilin A (AA116993) = test: as above; format: in vivo; details: 5 mg/g of food from 14 to 31 months
# Method: as §2
# Hsp-90 homolog (W62326) = test: as above; format: in vivo; details: 5 mg/g of food from 14 to 31 months
# Method: as §2
# [11] = test system: Interferon induced protein (AA013783); test: as above; format: in vivo; details: 5 mg/g of food from 14 to 31 months
# Method: as §2
# Cathepsin B (M65270) = test: as above; format: in vivo
# Method: as §2
# CD52 antigen (M55561) = test: as above; format: in vivo; details: 5 mg/g of food from 14 to 31 months
# Method: as §2
# [12] = test system: XPE UV-damaged DNA binding factor (W62091); test: as above; format: in vivo; details: 5 mg/g of food from 14 to 31 months
# Method: as §2
# [13] = test system: Lymphocyte receptor/polyubiquitin (W13546); test: as above; format: in vivo; details: 5 mg/g of food from 14 to 31 months
# Method: as §2
# [14] = test system: T-lymphocyte 1/rpt-1 regulatory protein (J03776); test: as above; format: in vivo; details: 5 mg/g of food from 14 to 31 months
# Method: as §2
# [15] = test system: Interferon-inducible protein (AA002526); test: as above; format: in vivo; details: 5 mg/g of food from 14 to 31 months
# Method: as §2
# [16] = test system: T-cell specific GTPase (U15636); test: as above; format: in vivo; details: 5 mg/g of food from 14 to 31 months
# Method: as §2
# JAK-1 (AA066354) = test: as above; format: in vivo
# Method: as §2
# [17] = test system: serum amyloid P-component precursor; test: Circulating serum protein levels in patient after Tempol treatment; format: in vivo, human; details: 1500 mg per day for 180 days
# Excerpt: (§3) This may be administered in a single dose, or may be administered as a number of smaller doses over a 24-hour period: for example, three 500-mg doses at eight-hour intervals. Following treatment, the circulating serum protein levels of serum amyloid P-component precursor, serum amyloid A-1 protein precursor, JAK-1, cathepsin B, eukaryotic translation initiation factor 4E member 2, cyclooxygenase-1, and caspase 3 are reduced. Furthermore, the serum protein levels of eukaryotic translation initiation factor 4E binding protein are increased.
# (§4) This may be administered in a single dose, or may be administered as a number of smaller doses over a 24-hour period: for example, three 500-mg doses at eight-hour intervals. Following treatment, the circulating serum protein levels of serum amyloid P-component precursor, serum amyloid A-1 protein precursor, JAK-1, and cathepsin B, eukaryotic translation initiation factor 4E member 2, cyclooxygenase-1, and caspase 3 are reduced. Furthermore, the serum protein levels of eukaryotic translation initiation factor 4E binding protein are increased.
# JAK-1 = test: as above; format: in vivo, human; details: 1500 mg per day for 180 days
# Excerpt: as §3, §4
# [18] = test system: eukaryotic translation initiation factor 4E binding protein; test: as above; format: in vivo, human; details: 1500 mg per day for 180 days
# Excerpt: as §3, §4
# [19] = test system: serum amyloid A-1 protein precursor; test: as above; format: in vivo, human; details: 1500 mg per day for 180 days
# Excerpt: as §3, §4
# caspase 3 [20] = test: as above; format: in vivo, human; details: 1500 mg per day for 180 days
# Excerpt: as §3, §4
# cyclooxygenase-1 = test: as above; format: in vivo, human; details: 1500 mg per day for 180 days
# Excerpt: as §3, §4
# cathepsin B = test: as above; format: in vivo, human; details: 1500 mg per day for 180 days
# Excerpt: as §3, §4
# [21] = test system: eukaryotic translation initiation factor 4E member 2; test: as above; format: in vivo, human; details: 1500 mg per day for 180 days
# Excerpt: as §3, §4
# [22] = adipose tissue of experimental mice, Table 4
# [23] = cardiac tissue of experimental mice, Table 1
# [24] = Example 1: 70-kilogram patient with symptoms of dementia
# [25] = Example 2: 70-kilogram patient with familial risk factors, no symptoms of dementia
structure (smiles),measurement,setting,value
"CC1(C)CC(O)CC(C)(C)N1[O] [Tempol, 4-hydroxy-2,2,6,6-tetramethylpiperidine-1-oxyl]",Mean (Tempol-treated mice),"[1]; EIF4E2, 5 g/kg of diet from 12 through 15 months, Affymetrix MOE430A 2.0 array",873
same,Fold change,"[1]; EIF4E2, Tempol-treated vs control mice, 5 g/kg of diet from 12 through 15 months",−1.23 fold
same,expression of the EIF4E2 protein downregulated,[1]; Table 4,1.23 fold
same,Mean (Tempol-treated mice),"Cyclooxygenase 1 (COX-1); COX-1, adipose tissue, 5 g/kg of diet from 12 through 15 months, Affymetrix MOE430A 2.0 array",331
same,Fold change,"Cyclooxygenase 1 (COX-1); COX-1, adipose tissue, Tempol-treated vs control mice, 5 g/kg of diet from 12 through 15 months",−1.18 fold
same,expression of COX-1 reduced,Cyclooxygenase 1 (COX-1); [22],1.18 fold
same,Mean (Tempol-treated mice),"Caspase 3 [2]; Caspase 3, adipose tissue, 5 g/kg of diet from 12 through 15 months, Affymetrix MOE430A 2.0 array",414
same,Fold change,"Caspase 3 [2]; Caspase 3, adipose tissue, Tempol-treated vs control mice, 5 g/kg of diet from 12 through 15 months",−1.47 fold
same,expression of caspase 3 reduced,Caspase 3 [2]; [22],1.47 fold
same,Mean (Tempol-treated mice),"[3]; EIF4EBP1, 5 g/kg of diet from 12 through 15 months, Affymetrix MOE430A 2.0 array",4737
same,Fold change,"[3]; EIF4EBP1, Tempol-treated vs control mice, 5 g/kg of diet from 12 through 15 months",1.29 fold
same,expression of EIF4E binding protein 1 upregulated,[3]; Table 3,1.29 fold
same,Fold change,[4]; TEMPOL-treated vs control mice,−2.3 fold
same,"Expression, TEMPOL-treated mice (tp51, tp52, tp53)",[4]; individual mice,149 and 88 and 72
same,Fold change,[5]; TEMPOL-treated vs control mice,−2.1 fold
same,"Expression, TEMPOL-treated mice (tp51, tp52, tp53)",[5]; individual mice,554 and 600 and 670
same,Fold change,"[6]; Y00426, cardiac tissue, TEMPOL-treated vs control mice, 5 mg/g of food from 14 to 31 months",−2.8 fold
same,"Expression, TEMPOL-treated mice (tp51, tp52, tp53)","[6]; Y00426, cardiac tissue, individual mice, 5 mg/g of food from 14 to 31 months",43 and 61 and 119
same,expression of serum amyloid P component precursor reduced,[6]; [23],2.8 fold
same,Fold change,[7]; TEMPOL-treated vs control mice,−2.1 fold
same,"Expression, TEMPOL-treated mice (tp51, tp52, tp53)",[7]; individual mice,200 and 154 and 164
same,Fold change,[8]; TEMPOL-treated vs control mice,−2.0 fold
same,"Expression, TEMPOL-treated mice (tp51, tp52, tp53)",[8]; individual mice,29 and 20 and 1
same,Fold change,[9]; TEMPOL-treated vs control mice,−5.2 fold
same,"Expression, TEMPOL-treated mice (tp51, tp52, tp53)",[9]; individual mice,25 and 37 and 115
same,Fold change,CD53 antigen (X97227); TEMPOL-treated vs control mice,−2.1 fold
same,"Expression, TEMPOL-treated mice (tp51, tp52, tp53)",CD53 antigen (X97227); individual mice,21 and −17 and −13
same,Fold change,"[10]; M13521, cardiac tissue, TEMPOL-treated vs control mice, 5 mg/g of food from 14 to 31 months",−2.5 fold
same,"Expression, TEMPOL-treated mice (tp51, tp52, tp53)","[10]; M13521, cardiac tissue, individual mice, 5 mg/g of food from 14 to 31 months",6 and 1 and 8
same,expression of serum amyloid A-1 protein precursor reduced,[10]; [23],2.5 fold
same,Fold change,Cyclophilin A (AA116993); TEMPOL-treated vs control mice,−2.1 fold
same,"Expression, TEMPOL-treated mice (tp51, tp52, tp53)",Cyclophilin A (AA116993); individual mice,12 and −14 and −10
same,Fold change,Hsp-90 homolog (W62326); TEMPOL-treated vs control mice,−2.4 fold
same,"Expression, TEMPOL-treated mice (tp51, tp52, tp53)",Hsp-90 homolog (W62326); individual mice,6 and 16 and 39
same,Fold change,[11]; TEMPOL-treated vs control mice,−4.9 fold
same,"Expression, TEMPOL-treated mice (tp51, tp52, tp53)",[11]; individual mice,−81 and 27 and 41
same,Fold change,"Cathepsin B (M65270); M65270, cardiac tissue, TEMPOL-treated vs control mice, 5 mg/g of food from 14 to 31 months",−2.8 fold
same,"Expression, TEMPOL-treated mice (tp51, tp52, tp53)","Cathepsin B (M65270); M65270, cardiac tissue, individual mice, 5 mg/g of food from 14 to 31 months",−12 and 6 and 13
same,expression of cathepsin B reduced,"Cathepsin B (M65270); cardiac tissue of experimental mice, text restating Table 2",2.8 fold
same,Fold change,CD52 antigen (M55561); TEMPOL-treated vs control mice,−3.5 fold
same,"Expression, TEMPOL-treated mice (tp51, tp52, tp53)",CD52 antigen (M55561); individual mice,106 and 177 and 171
same,Fold change,[12]; TEMPOL-treated vs control mice,−2.9 fold
same,"Expression, TEMPOL-treated mice (tp51, tp52, tp53)",[12]; individual mice,61 and 75 and 213
same,Fold change,[13]; TEMPOL-treated vs control mice,−55.2 fold
same,"Expression, TEMPOL-treated mice (tp51, tp52, tp53)",[13]; individual mice,−16 and −66 and 1331
same,Fold change,[14]; TEMPOL-treated vs control mice,−2.7 fold
same,"Expression, TEMPOL-treated mice (tp51, tp52, tp53)",[14]; individual mice,17 and 42 and 29
same,Fold change,[15]; TEMPOL-treated vs control mice,−2.7 fold
same,"Expression, TEMPOL-treated mice (tp51, tp52, tp53)",[15]; individual mice,26 and 34 and 36
same,Fold change,[16]; TEMPOL-treated vs control mice,−2.0 fold
same,"Expression, TEMPOL-treated mice (tp51, tp52, tp53)",[16]; individual mice,146 and 79 and 164
same,Fold change,"JAK-1 (AA066354); AA066354, cardiac tissue, TEMPOL-treated vs control mice, 5 mg/g of food from 14 to 31 months",−5.1 fold
same,"Expression, TEMPOL-treated mice (tp51, tp52, tp53)","JAK-1 (AA066354); AA066354, cardiac tissue, individual mice, 5 mg/g of food from 14 to 31 months",124 and 22 and 30
same,expression of JAI(-1 reduced),JAK-1 (AA066354); [23],5.1 fold
same,circulating serum protein level of serum amyloid P-component precursor,[17]; [24],reduced
same,circulating serum protein level of serum amyloid P-component precursor,[17]; [25],reduced
same,circulating serum protein level of JAK-1,JAK-1; [24],reduced
same,circulating serum protein level of JAK-1,JAK-1; [25],reduced
same,serum protein level of eukaryotic translation initiation factor 4E binding protein,[18]; [24],increased
same,serum protein level of eukaryotic translation initiation factor 4E binding protein,[18]; [25],increased
same,circulating serum protein level of serum amyloid A-1 protein precursor,[19]; [24],reduced
same,circulating serum protein level of serum amyloid A-1 protein precursor,[19]; [25],reduced
same,circulating serum protein level of caspase 3,caspase 3 [20]; [24],reduced
same,circulating serum protein level of caspase 3,caspase 3 [20]; [25],reduced
same,circulating serum protein level of cyclooxygenase-1,cyclooxygenase-1; [24],reduced
same,circulating serum protein level of cyclooxygenase-1,cyclooxygenase-1; [25],reduced
same,circulating serum protein level of cathepsin B,cathepsin B; [24],reduced
same,circulating serum protein level of cathepsin B,cathepsin B; [25],reduced
same,circulating serum protein level of eukaryotic translation initiation factor 4E member 2,[21]; [24],reduced
same,circulating serum protein level of eukaryotic translation initiation factor 4E member 2,[21]; [25],reduced
